System: C. felis
Test: In vivo study in dogs to assess flea control efficacy in a simulated home environment
Details: 25 mg/kg oral; for Mean flea numbers (arithmetic), Treated group / Mean flea numbers (geometric), Treated group: 25 mg/kg
Method: Twenty healthy male and female mixed-breed dogs ≧12 weeks old were housed in individual pens. Ten dogs per group were randomly assigned to receive either a fluralaner chewable tablet (Bravecto™) or no treatment. Each pen contained the bottom half of a dog carrier lined with carpet as bedding. Before treatment, each dog was infested twice (28 and 21 days pretreatment) with 100 adult, unfed C. felis to establish a flea population prior to treatment on each dog. Flea media was added to the carpet 4 weeks before the treatment date and weekly thereafter for the remainder of the study to encourage development of an active, developing population of juvenile flea stages in each pen. On the treatment day, dogs in the treated group received fluralaner at a dose close to 25 mg/kg body weight by oral administration. The chewable tablet(s) were administered by placement in the back of the oral cavity over the tongue to initiate swallowing. Dogs in the negative control group remained untreated. Flea counts were performed on all dogs 1 day before treatment, 1 day after treatment and then every 7 days until completion of the study 84 days later. All live fleas recovered were held and re-infested on the dog after the comb count was completed. Each dog was also infested with 50 newly emerged unfed adult fleas on days 22, 50 and 78 to simulate natural infestation post-treatment. The individual dog was the experimental unit and data from each flea count time point were analyzed separately. Flea count data were transformed [Y=loge(x+1)] and analyzed by a mixed linear model including treatment as the fixed effect and block as the random effect. Kenward-Rogers adjustment was used to determine the denominator degree of freedom. A two-tailed test was used within the mixed linear model for the comparison between treatment groups and statistical significance was declared when P≦0.05. SAS version 9.3 was the primary software used for analysis. Efficacy was calculated using arithmetic and geometric means with Abbott's formula: Efficacy (%)=100×(MC−MT)/MC, where MC was the arithmetic or geometric mean number of total adult live fleas on untreated dogs and MT the arithmetic or geometric mean number of total adult live fleas on treated dogs.

[1] = day 1 post treatment, listed as fluranaler
[2] = day 7 post treatment, listed as fluranaler
[3] = day 14 post treatment, listed as fluranaler
[4] = day 21 post treatment, listed as fluranaler
[5] = day 28 post treatment, listed as fluranaler
[6] = day 35 post treatment, listed as fluranaler
[7] = day 42 post treatment, listed as fluranaler
[8] = day 49 post treatment, listed as fluranaler
[9] = day 56 post treatment, listed as fluranaler
[10] = day 63 post treatment, listed as fluranaler
[11] = day 70 post treatment, listed as fluranaler
[12] = day 77 post treatment, listed as fluranaler
[13] = day 84 post treatment, listed as fluranaler

Cc1cc(C2=NOC(c3cc(Cl)cc(Cl)c3)(C(F)(F)F)C2)ccc1C(=O)NCC(=O)NCC(F)(F)F (stereo not shown) [fluralaner, 4-[5-(3,5-Dichlorophenyl)-5-trifluoromethyl-4,5-dihydroisoxazol-3-yl]-2-methyl-N-[(2,2,2-trifluoro-ethylcarbamoyl)-methyl]-benzamide]
Flea-control efficacy (all post-treatment time points (12-week post-treatment period)): ~100%
Efficacy (from arithmetic mean flea counts) (day 1 post treatment): 100/100%
Efficacy (from geometric mean flea counts) (day 1 post treatment): 100/100%
Mean flea numbers (arithmetic), Treated group (day 1 post treatment): 0
Mean flea numbers (geometric), Treated group (day 1 post treatment): 0
Mean flea numbers (arithmetic), Treated group [1]: 0/0
Mean flea numbers (geometric), Treated group [1]: 0/0
Efficacy (from arithmetic mean flea counts) (day 7 post treatment): 100/100%
Efficacy (from geometric mean flea counts) (day 7 post treatment): 100/100%
Mean flea numbers (arithmetic), Treated group (day 7 post treatment): 0
Mean flea numbers (geometric), Treated group (day 7 post treatment): 0
Mean flea numbers (arithmetic), Treated group [2]: 0/0
Mean flea numbers (geometric), Treated group [2]: 0/0
Efficacy (from arithmetic mean flea counts) (day 14 post treatment): 100/100%
Efficacy (from geometric mean flea counts) (day 14 post treatment): 100/100%
Mean flea numbers (arithmetic), Treated group (day 14 post treatment): 0
Mean flea numbers (geometric), Treated group (day 14 post treatment): 0
Mean flea numbers (arithmetic), Treated group [3]: 0/0
Mean flea numbers (geometric), Treated group [3]: 0/0
Efficacy (from arithmetic mean flea counts) (day 21 post treatment): 100/100%
Efficacy (from geometric mean flea counts) (day 21 post treatment): 100/100%
Mean flea numbers (arithmetic), Treated group (day 21 post treatment): 0
Mean flea numbers (geometric), Treated group (day 21 post treatment): 0
Mean flea numbers (arithmetic), Treated group [4]: 0/0
Mean flea numbers (geometric), Treated group [4]: 0/0
Efficacy (from arithmetic mean flea counts) (day 28 post treatment): 100/100%
Efficacy (from geometric mean flea counts) (day 28 post treatment): 100/100%
Mean flea numbers (arithmetic), Treated group (day 28 post treatment): 0
Mean flea numbers (geometric), Treated group (day 28 post treatment): 0
Mean flea numbers (arithmetic), Treated group [5]: 0/0
Mean flea numbers (geometric), Treated group [5]: 0/0
Efficacy (from arithmetic mean flea counts) (day 35 post treatment): 100/100%
Efficacy (from geometric mean flea counts) (day 35 post treatment): 100/100%
Mean flea numbers (arithmetic), Treated group (day 35 post treatment): 0
Mean flea numbers (geometric), Treated group (day 35 post treatment): 0
Mean flea numbers (arithmetic), Treated group [6]: 0/0
Mean flea numbers (geometric), Treated group [6]: 0/0
Efficacy (from arithmetic mean flea counts) (day 42 post treatment): 100/100%
Efficacy (from geometric mean flea counts) (day 42 post treatment): 100/100%
Mean flea numbers (arithmetic), Treated group (day 42 post treatment): 0
Mean flea numbers (geometric), Treated group (day 42 post treatment): 0
Mean flea numbers (arithmetic), Treated group [7]: 0/0
Mean flea numbers (geometric), Treated group [7]: 0/0
Efficacy (from arithmetic mean flea counts) (day 49 post treatment): 99.8%
Efficacy (from geometric mean flea counts) (day 49 post treatment): 99.7%
Mean flea numbers (arithmetic), Treated group (day 49 post treatment): 0.1
Mean flea numbers (geometric), Treated group (day 49 post treatment): 0.1
Mean flea numbers (arithmetic), Treated group [8]: 0.1/0.1
Mean flea numbers (geometric), Treated group [8]: 0.1/0.1
Efficacy (from arithmetic mean flea counts) (day 56 post treatment): 99.8/99.8%
Efficacy (from geometric mean flea counts) (day 56 post treatment): 99.8/99.8%
Mean flea numbers (arithmetic), Treated group (day 56 post treatment): 0.1
Mean flea numbers (geometric), Treated group (day 56 post treatment): 0.1
Mean flea numbers (arithmetic), Treated group [9]: 0.1/0.1
Mean flea numbers (geometric), Treated group [9]: 0.1/0.1
Efficacy (from arithmetic mean flea counts) (day 63 post treatment): 100/100%
Efficacy (from geometric mean flea counts) (day 63 post treatment): 100/100%
Mean flea numbers (arithmetic), Treated group (day 63 post treatment): 0
Mean flea numbers (geometric), Treated group (day 63 post treatment): 0
Mean flea numbers (arithmetic), Treated group [10]: 0/0
Mean flea numbers (geometric), Treated group [10]: 0/0
Efficacy (from arithmetic mean flea counts) (day 70 post treatment): 99.7%
Efficacy (from geometric mean flea counts) (day 70 post treatment): 99.6%
Mean flea numbers (arithmetic), Treated group (day 70 post treatment): 0.1
Mean flea numbers (geometric), Treated group (day 70 post treatment): 0.1
Mean flea numbers (arithmetic), Treated group [11]: 0.1/0.1
Mean flea numbers (geometric), Treated group [11]: 0.1/0.1
Efficacy (from arithmetic mean flea counts) (day 77 post treatment): 100/100%
Efficacy (from geometric mean flea counts) (day 77 post treatment): 100/100%
Mean flea numbers (arithmetic), Treated group (day 77 post treatment): 0
Mean flea numbers (geometric), Treated group (day 77 post treatment): 0
Mean flea numbers (arithmetic), Treated group [12]: 0/0
Mean flea numbers (geometric), Treated group [12]: 0/0
Efficacy (from arithmetic mean flea counts) (day 84 post treatment): 100/100%
Efficacy (from geometric mean flea counts) (day 84 post treatment): 100/100%
Mean flea numbers (arithmetic), Treated group (day 84 post treatment): 0
Mean flea numbers (geometric), Treated group (day 84 post treatment): 0
Mean flea numbers (arithmetic), Treated group [13]: 0/0
Mean flea numbers (geometric), Treated group [13]: 0/0

— US9655884B2, “Antiparasitic use of isoxazoline compounds” (Intervet Inc., priority 2013, dated 2017)
